One data set deals with PI3K delta (Homo sapiens, UniProt O00329). In words: In vitro enzyme activity assay (ADP-Glo lipid kinase), PI3K delta.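 Further: kinase reaction run at 23 °C, then leftover ATP depleted and the ADP formed turned back into ATP, with the luciferin/luciferase signal read as kinase activity.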 Conditions: PI3Kδ IC50, ATP 40 μM, PIP2:3PS 50 μM, 120 min. In general terms: ADP-Glo first removes unused ATP, then detects ADP through luciferase.
The target of a further data set is PI3K gamma (Homo sapiens, UniProt P48736). In words: In vitro enzyme activity assay (ADP-Glo lipid kinase), PI3K gamma. Conditions: PI3Kγ IC50, ATP 25 μM, PIP2:3PS 50 μM, 120 min.
In another data set the test system is TMD-8 cell. In words: TMD-8 cell viability test (CellTiter-Glo, 72 h). Particulars: Homo sapiens, TMD8. The data set is classed as cell-based. The procedure: 7) After incubation, readings at 620 and 665 nm on EnVingen were recorded. • <2> TMD-8 cell viability test • 1) Cell Culture
Cells were regularly passaged. Cells at logarithmic growth phase were transferred to the plate. • 2) Plating • (1). Cells were stained with trypan blue and viable cells were counted. • (2). Cell concentration was adjusted to 7000 cells/well • (3). 90 μL of cell suspension was added to each well of the plate and cell-free medium was added to blank control wells. • (4). The plate was incubated overnight at 37° C., 5% CO2 and 100% relative humidity in an incubator. • 3) Preparation of Plate Containing Compound Stock
(1). Preparation of plate containing 400× compound stock: Compounds were diluted from the highest concentration gradient to lowest concentration with DMSO. • 4) Preparation of 10× compound working solution and treatment • (1). Preparation of 10× compound working solution: 78 μL of cell culture medium was added to a V-bottom 96-well plate, and 2 μL of compound stock solution was pipetted from the plate containing 400× compound stock into the cell cultures of 96-well plate. 2 μL of DMSO was added to the vehicle control wells and blank control wells. After compounds or DMSO was added, the mixture was well mixed by a pipette. • (2). 10 μL of DMSO-cell culture medium mixture solution was added to the vehicle control wells and blank control wells. The final concentration of DMSO was 0.25%. • (3). The 96-well cell plate was incubated in the incubator for another 72 h. • 5) CellTiter-Glo Luminescent Cell Viability Assay
The following procedure was performed according to the instructions of Promega CellTiter-Glo luminescent cell viability assay kit (Promega-G7573). • (1). CellTiter-Glo buffer was thawed and let stand at room temperature. • (2). The CellTiter-Glo substrate was let stand at room temperature. • (3). The CellTiter-Glo buffer was added to a flask of CellTiter-Glo substrate to dissolve the substrate, thereby preparing a CellTiter-Glo working solution. • (4). The solution was vortexed to completely dissolve the substrate. • (5). The plate was incubated at room temperature for 30 min for equilibration. • (6). 50 μL (equal to half the volume of cell culture medium in each well) of CellTiter-Glo working solution was added to each well. The plate was covered by aluminum foil to avoid light. • (7). The plate was shaken on an orbital shaker for 2 min to induce cell lysis. • (8). The plate was let stand at room temperature for 10 min to stabilize the luminescence signals. • (9). The luminescence signals were detected on 2104 EnVision plate reader.

Data set [1] is described as follows: In vivo DMPK study, single dose in female Balb/c mice. Particulars: for half-life: female, Balb/c, 1 mg/kg, note lists it as an intravenous parameter, read-out: T1/2 (half-life) (converted); for half-life / Cmax: mouse, plasma; for half-life / Oral DNAUC (dose-normalized area under curve): mice; for Cmax: oral 3 mg/kg, female Balb/c mice. The procedure:
Objective: To evaluate the plasma concentration of the compounds and pharmacokinetics after a single dose in female Balb/c mice.
Procedures: 8 healthy adult female Balb/c mice were randomized, 4 for intravenous administration and 4 for oral administration. The compounds were mixed with a proper amount of vehicle for intravenous injection (DMSO/PEG200/water (5:45:50 v/v/v)). The mixture was vortexed and treated with ultrasound to give a 1.0 mg/mL clear solution. The clear solution was filtered through a microporous membrane filter for later use. For the oral group, the vehicle was 0.5% MC/0.2% Tween 80. The compound was mixed with the vehicle, and the mixture was vortexed and ultrasonically treated to give 1.0 mg/mL uniform suspension for later use. The mice were administered intravenously at 1 mg/kg or orally at 3 mg/kg. Whole blood was collected at certain time points, and plasma was separated. The drug concentration was measured by LC-MS/MS, and pharmacokinetic parameters were calculated using
Phoenix WinNonlin software (Pharsight, USA).

The next data set addresses PI3K beta (Homo sapiens, UniProt P42338). In words: In vitro enzyme activity assay (ADP-Glo lipid kinase), PI3K beta.
The target of the next data set is PI3K alpha (Homo sapiens, UniProt P42336). In words: In vitro enzyme activity assay (ADP-Glo lipid kinase), PI3K alpha.

pIC50: −log10 of the molar value. Like-named read-outs stand apart in the source and are kept apart here. Where only a bound is given, the exact number is not on record here.

Chain of PI3K gamma (P48736 whole entry): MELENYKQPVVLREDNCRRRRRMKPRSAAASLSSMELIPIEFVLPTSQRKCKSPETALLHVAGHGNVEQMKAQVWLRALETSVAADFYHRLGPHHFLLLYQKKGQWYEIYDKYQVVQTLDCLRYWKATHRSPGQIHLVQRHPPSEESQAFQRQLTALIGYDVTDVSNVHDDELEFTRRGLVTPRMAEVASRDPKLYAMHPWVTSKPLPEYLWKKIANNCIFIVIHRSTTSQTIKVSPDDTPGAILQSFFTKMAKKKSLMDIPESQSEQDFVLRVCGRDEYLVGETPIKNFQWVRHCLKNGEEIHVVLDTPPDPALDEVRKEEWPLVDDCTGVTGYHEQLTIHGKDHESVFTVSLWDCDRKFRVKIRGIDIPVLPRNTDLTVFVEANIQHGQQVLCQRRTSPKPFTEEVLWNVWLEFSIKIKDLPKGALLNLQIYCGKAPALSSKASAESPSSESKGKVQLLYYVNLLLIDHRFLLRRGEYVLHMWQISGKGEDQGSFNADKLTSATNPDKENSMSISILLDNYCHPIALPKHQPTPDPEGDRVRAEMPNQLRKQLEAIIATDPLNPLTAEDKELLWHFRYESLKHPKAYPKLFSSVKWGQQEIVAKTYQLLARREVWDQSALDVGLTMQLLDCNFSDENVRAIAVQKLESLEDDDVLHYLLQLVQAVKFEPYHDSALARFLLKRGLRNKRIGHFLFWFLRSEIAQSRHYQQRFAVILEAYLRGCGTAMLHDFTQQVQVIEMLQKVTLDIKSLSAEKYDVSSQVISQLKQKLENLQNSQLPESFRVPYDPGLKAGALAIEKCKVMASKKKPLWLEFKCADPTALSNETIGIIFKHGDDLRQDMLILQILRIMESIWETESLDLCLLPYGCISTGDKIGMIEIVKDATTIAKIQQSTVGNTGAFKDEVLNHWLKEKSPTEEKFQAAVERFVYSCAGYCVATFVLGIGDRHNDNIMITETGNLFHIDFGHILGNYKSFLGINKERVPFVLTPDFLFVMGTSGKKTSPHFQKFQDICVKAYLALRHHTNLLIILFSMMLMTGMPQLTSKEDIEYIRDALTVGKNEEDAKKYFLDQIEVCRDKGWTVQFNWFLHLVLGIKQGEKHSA
Chain of PI3K delta (O00329 whole entry): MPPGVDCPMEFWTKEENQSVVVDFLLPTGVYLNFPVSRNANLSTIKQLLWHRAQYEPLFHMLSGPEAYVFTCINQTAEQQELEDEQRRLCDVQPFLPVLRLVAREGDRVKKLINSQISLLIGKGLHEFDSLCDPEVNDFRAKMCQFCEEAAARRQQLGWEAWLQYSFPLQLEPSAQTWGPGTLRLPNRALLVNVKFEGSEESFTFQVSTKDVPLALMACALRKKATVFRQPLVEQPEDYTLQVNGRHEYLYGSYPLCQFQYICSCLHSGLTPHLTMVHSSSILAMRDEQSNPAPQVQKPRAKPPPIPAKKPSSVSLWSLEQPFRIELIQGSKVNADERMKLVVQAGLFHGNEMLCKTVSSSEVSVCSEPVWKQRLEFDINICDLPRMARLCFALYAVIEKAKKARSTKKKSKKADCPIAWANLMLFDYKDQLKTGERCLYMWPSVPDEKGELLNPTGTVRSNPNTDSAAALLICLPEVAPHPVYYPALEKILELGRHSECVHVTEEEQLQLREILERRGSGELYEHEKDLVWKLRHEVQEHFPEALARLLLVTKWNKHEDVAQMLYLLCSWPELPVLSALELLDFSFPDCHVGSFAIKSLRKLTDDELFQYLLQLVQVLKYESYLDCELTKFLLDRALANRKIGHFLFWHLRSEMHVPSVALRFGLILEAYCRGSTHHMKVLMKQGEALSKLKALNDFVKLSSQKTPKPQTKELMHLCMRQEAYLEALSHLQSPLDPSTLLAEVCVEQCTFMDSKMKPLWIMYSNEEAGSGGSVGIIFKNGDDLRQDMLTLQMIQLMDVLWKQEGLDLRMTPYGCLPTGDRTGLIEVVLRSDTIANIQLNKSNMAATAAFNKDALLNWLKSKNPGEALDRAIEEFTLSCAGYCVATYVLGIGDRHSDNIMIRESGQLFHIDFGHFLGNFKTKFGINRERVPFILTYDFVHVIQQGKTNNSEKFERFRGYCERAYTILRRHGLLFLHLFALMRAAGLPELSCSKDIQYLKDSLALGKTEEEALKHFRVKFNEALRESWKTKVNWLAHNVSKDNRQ
Chain of PI3K delta (P27986 whole entry partner): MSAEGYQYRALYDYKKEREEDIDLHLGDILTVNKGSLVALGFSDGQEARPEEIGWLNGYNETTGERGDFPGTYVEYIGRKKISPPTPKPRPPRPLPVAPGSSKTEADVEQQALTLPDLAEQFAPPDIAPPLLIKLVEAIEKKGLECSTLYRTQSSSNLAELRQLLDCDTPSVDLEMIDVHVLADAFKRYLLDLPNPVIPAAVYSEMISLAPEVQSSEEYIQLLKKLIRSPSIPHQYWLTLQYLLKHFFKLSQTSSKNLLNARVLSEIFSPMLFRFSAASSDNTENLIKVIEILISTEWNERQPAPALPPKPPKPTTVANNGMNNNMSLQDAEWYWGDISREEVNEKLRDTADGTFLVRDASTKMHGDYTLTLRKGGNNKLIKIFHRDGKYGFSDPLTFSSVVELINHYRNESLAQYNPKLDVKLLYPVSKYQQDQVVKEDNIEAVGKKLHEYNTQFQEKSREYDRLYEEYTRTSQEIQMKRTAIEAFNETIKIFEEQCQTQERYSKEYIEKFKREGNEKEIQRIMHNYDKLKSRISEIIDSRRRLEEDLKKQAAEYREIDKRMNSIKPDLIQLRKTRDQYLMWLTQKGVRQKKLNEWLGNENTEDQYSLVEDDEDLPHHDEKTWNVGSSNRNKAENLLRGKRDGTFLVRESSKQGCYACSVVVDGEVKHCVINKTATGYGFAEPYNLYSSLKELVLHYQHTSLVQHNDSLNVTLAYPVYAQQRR
Chain of PI3K alpha (P42336 whole entry): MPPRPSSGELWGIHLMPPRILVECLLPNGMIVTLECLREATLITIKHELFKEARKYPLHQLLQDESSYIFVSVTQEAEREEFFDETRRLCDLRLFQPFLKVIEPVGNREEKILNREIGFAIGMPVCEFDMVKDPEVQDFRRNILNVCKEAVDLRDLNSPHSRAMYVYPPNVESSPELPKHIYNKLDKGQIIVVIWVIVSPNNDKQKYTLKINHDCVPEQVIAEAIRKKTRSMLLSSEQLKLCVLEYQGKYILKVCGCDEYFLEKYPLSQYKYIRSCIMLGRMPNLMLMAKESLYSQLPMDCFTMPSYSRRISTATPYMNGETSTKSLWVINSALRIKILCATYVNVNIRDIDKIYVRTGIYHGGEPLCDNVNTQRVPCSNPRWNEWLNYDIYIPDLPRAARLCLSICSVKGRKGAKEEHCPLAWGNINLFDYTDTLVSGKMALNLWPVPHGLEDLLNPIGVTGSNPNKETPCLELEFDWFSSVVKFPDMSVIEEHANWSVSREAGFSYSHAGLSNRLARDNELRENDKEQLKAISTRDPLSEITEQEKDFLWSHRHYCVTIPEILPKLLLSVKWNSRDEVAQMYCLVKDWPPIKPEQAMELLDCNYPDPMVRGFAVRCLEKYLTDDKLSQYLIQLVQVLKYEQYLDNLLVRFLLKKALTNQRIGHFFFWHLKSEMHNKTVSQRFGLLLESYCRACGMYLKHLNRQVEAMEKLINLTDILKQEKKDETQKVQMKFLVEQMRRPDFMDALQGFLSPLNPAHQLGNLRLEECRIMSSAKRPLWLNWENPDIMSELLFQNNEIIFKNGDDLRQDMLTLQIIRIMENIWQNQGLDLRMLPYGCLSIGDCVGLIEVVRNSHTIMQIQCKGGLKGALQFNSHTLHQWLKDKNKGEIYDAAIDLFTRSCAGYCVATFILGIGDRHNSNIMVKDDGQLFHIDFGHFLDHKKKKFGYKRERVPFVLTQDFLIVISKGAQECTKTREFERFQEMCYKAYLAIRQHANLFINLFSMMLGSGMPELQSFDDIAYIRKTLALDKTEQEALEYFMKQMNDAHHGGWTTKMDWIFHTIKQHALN
Chain of PI3K alpha (P27986 whole entry partner): as the sequence (P27986 whole entry partner) above
Chain of PI3K beta (P42338 whole entry): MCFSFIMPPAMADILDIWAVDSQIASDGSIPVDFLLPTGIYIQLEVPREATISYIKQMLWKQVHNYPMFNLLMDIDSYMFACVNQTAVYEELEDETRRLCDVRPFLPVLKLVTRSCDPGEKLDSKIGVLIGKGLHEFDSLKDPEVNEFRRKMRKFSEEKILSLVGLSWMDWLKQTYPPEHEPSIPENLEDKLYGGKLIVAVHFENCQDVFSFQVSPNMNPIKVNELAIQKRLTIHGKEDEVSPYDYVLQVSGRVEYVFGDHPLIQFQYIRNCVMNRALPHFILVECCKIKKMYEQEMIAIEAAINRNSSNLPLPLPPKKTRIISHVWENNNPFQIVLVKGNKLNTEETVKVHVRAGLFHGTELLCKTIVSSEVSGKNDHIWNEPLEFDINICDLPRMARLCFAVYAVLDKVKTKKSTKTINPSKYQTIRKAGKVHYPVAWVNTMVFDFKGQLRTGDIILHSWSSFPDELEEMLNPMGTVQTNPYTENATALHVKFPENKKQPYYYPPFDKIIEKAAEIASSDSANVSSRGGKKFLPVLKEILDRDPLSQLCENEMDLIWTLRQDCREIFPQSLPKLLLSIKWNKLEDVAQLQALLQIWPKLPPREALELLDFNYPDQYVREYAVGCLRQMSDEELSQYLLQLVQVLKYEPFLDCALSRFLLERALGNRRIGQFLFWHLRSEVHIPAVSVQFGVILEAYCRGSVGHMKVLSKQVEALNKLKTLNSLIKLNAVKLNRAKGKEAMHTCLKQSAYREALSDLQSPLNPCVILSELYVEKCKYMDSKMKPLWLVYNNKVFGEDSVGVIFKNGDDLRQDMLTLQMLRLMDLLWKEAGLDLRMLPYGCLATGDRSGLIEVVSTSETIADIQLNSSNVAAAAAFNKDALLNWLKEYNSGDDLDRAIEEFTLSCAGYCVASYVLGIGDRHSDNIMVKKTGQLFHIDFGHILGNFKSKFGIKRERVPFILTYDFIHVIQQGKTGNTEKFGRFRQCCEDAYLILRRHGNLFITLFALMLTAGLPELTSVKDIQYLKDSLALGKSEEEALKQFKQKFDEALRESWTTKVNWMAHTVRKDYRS
Chain of PI3K beta (P27986 whole entry partner): as the sequence (P27986 whole entry partner) above
Experimental for PI3K alpha: (§1) An appropriate substrate and ATP were incubated at a suitable condition for lipid kinase reaction, followed by a two-step detection of kinase activity using an ADP-Glo™ kit. Step I: The kinase reaction was terminated and residual ATP was completely removed, leaving ADP only; Step II: A kinase assay reagent was added to convert ADP to ATP by a luciferin/luciferase reaction. Finally, a fluorescence output value was detected and converted into kinase activity.
(§2) • 2) Kit: ADP-Glo™ lipid kinase and PIP2:3PS kit (Promega #V1792)
(§3) The mixture was incubated at 23° C. for 20 min • (10) 2 μL of ATP solution was added, and the mixture was centrifuged at 1000 rpm and was shaken to mix well • (11) The plate was covered, shaken for about 30 s, and incubated for 2 h at 23° C. • (12) 5 μL of ADP-Glo reagent containing 10 mM MgCl2 was added • (13) The mixture was centrifuged at 1000 rpm for 10 s, covered and shaken for about 30 s, and incubated at 23° C. for 60 min • (14) 10 μL of kinase assay reagent was added • (15) The mixture was centrifuged at 1000 rpm for 10 s, and incubated at 23° C. for 60 min • (16) Fluorescence values were measured by an Envision system. • 2. […] The mixture was incubated at 37° C./CO2 for 10 min. • 5) The compound was removed by pipette. Lysis buffer was added at 50 μL/well, and the cells wereincubated on a shaker for 30 min. • 6) After the cells were completely lysed, 16 μL of lysate was transferred to a 384-well plate and 4 μL of prepared AC+D2 in the kit was added. (AC: Eu3+-cryptate antibody binds to phosphorylated AKT, while D2 binds to non-phosphorylated AKT) The mixture was incubated at room temperature for 4 h.
Experimental for PI3K beta: as §1, §2, §3
Experimental for PI3K delta: as §1, §2
The kit comprises: 1 mM PIP2:3PS, 10× lipid dilution buffer, 1 M magnesium chloride, 10 mM ATP, 10 mM ADP, ADP-Glo reagent, detection buffer and substrate. • 3) Plate: OptiPlate-384, white and transparent (PerkinElmer #6007299) Reagent preparation: • 1) 10x reaction buffer: 500 mM HEPES (4-(2-hydroxyethyl)-1-piperazineethanesulfonic acid), pH 7.5, 500 mM NaCl, 9 mM MgCl2; BSA: 10% stock solution, prepared in-house • 2) Condition for final test system: 1× reaction system: 50 mM HEPES, 50 mM NaCl, 3 mM MgCl2, 0.01% BSA (prepared on the day of experiment), 1% DMSO (v/v) +/−compound • 3) Reaction system: 3 μL of enzyme and substrate mixture (1:1) +2 μL of ATP/MgCl2 mixture +5 μL of ADP-Glo reagent +10 μL detection reagent.
The specific experimental procedures are as follows: • 1) Dilution: 50 nL of 100× compound/DMSO solution were transferred into a test plate using Echo • For PI3Kα, the compound was serially diluted by three fold from the highest concentration 0.111 mM to the 10th concentration. • For PI3Kβ/PI3Kδ/PI3Kγ, the compound was serially diluted by three fold from the highest concentration of 1.11 mM to the 10th concentration. • 2) Kinase reaction: • (1) The target compounds were prepared. 50 nL of 100× compound solution or DMSO was added to the corresponding plate • (2) A 3.33 × reaction buffer was prepared • (3) A 3.33× PIP2:3PS solution were prepared; the PIP2:3PS solution should be thawed by vortex for at least 1 min before use • (4) An ATP solution containing 5.25 mM MgCl2 was prepared • (5) 3.33× PI3Kα/PI3Kβ/PI3Kδ/PI3Kγ solutions were prepared • (6) The lipid kinase solution and PIP2:3PS solution were mixed at a volume ratio of 1:1 • (7) The 3.33 × lipid kinase buffer and PIP2:3PS solution were mixed at a volume ratio of 1:1 • (8) 3 μL of the mixed solution of reaction buffer and PIP2:3PS was added to Columns 1 and 2 of the plate • (9) 3 μL of the mixed solution of the enzyme and PIP2:3PS was added to the wells of the plate other than Columns 1 and 2, and was centrifuged for 10 s (1000 rpm). The mixture was incubated at 23° C. for 20 min • (10) 2 μL of ATP solution was added, and the mixture was centrifuged at 1000 rpm and was shaken to mix well • (11) The plate was covered, shaken for about 30 s, and incubated for 2 h at 23° C. • (12) 5 μL of ADP-Glo reagent containing 10 mM MgCl2 was added • (13) The mixture was centrifuged at 1000 rpm for 10 s, covered and shaken for about 30 s, and incubated at 23° C. for 60 min • (14) 10 μL of kinase assay reagent was added • (15) The mixture was centrifuged at 1000 rpm for 10 s, and incubated at 23° C. for 60 min • (16) Fluorescence values were measured by an Envision system. • 2.
Experimental for PI3K gamma: as §1, §2, §3

As to `COc1ncc(-c2nn(C(C)c3nc4ccc(F)cn4c(=O)c3-c3cccc(F)c3)c3ncnc(N)c23)s1` (single isomer, unassigned) [WX008], the pIC50 (in general, the negative decadic logarithm of the IC50, by convention in mol/L) was 6.11 on PI3K delta and under 5.00 on PI3K gamma.

In the case of `CC(C)Oc1ncc(-c2nn(C(C)c3nc4ccc(F)cn4c(=O)c3-c3cccc(F)c3)c3ncnc(N)c23)s1` (stereo not drawn) [WX048], the pIC50 against PI3K delta is 7.14; against PI3K gamma, 5.69.

For the compound `CC(c1nc2ccc(F)cn2c(=O)c1-c1cccc(F)c1)n1nc(-c2cnc(OCC(F)(F)F)s2)c2c(N)ncnc21` (stereo not drawn) [WX028], the pIC50 is 6.48 at PI3K delta and 5.53 against PI3K gamma.

As to `CC(c1nc2ccc(F)cn2c(=O)c1-c1cccc(F)c1)n1nc(-c2cnc(OCC(F)F)s2)c2c(N)ncnc21` (stereo not drawn) [WX016], the pIC50 in the data set on TMD-8 cell was 5.39. Also, in data set [1], the half-life is 231 min; the Cmax – broadly, the peak of the concentration-time curve – came to 2180 nM; the “Oral DNAUC (dose-normalized area under curve)” value is on record as 5599 nM · h/mpk. The pIC50 against PI3K delta is 7.38. On PI3K gamma, this compound showed a pIC50 of 6.59.

With `CC(c1nc2ccc(F)cn2c(=O)c1-c1cccc(F)c1)n1nc(-c2cnc(OC3CC3)s2)c2c(N)ncnc21` (stereo not drawn) [WX030], the pIC50 was 7.34 at PI3K delta and 5.92 against PI3K gamma.

On to `CC(C)Oc1ccc(-c2nn(C(C)c3nc4ccc(F)cn4c(=O)c3-c3cccc(F)c3)c3ncnc(N)c23)cn1` (single isomer, unassigned) [WX003], for which the negative logarithm of the IC50 (pIC50) was under 6.00 at PI3K delta and under 5.00 against PI3K gamma.

`CC(c1nc2ccc(F)cn2c(=O)c1-c1cccc(F)c1)n1nc(-c2cnc3c(c2)OCCO3)c2c(N)ncnc21` (stereo not drawn) [WX056] registered a Cmax in data set [1] of 4950 nM. In addition, the “Oral DNAUC (dose-normalized area under curve)” value in data set [1] is given as 2037 nM · h/mpk. Also, the pIC50 on PI3K beta is under 5.00; on PI3K alpha, under 5.00; against PI3K delta, 6.73; at PI3K gamma, 6.13.

In the data set with TMD-8 cell, `COCCOc1ncc(-c2nn(C(C)c3nc4ccc(F)cn4c(=O)c3-c3cccc(F)c3)c3ncnc(N)c23)s1` (stereo not drawn) [WX018] gave a pIC50 of 5.47. In data set [1], the half-life was 84 min, the Cmax is 2240 nM and the “Oral DNAUC (dose-normalized area under curve)” value was found to be 1244 nM · h/mpk. Moreover, the pIC50 at PI3K delta is 6.91. The pIC50 on PI3K gamma was 5.81.

On to `COc1ncc(-c2nn(C(C)c3nc4ccc(F)cn4c(=O)c3-c3cccc(F)c3)c3ncnc(N)c23)cc1C#N` (single isomer, unassigned) [WX006], for which the pIC50 against PI3K delta was under 6.00; against PI3K gamma, under 5.00.

Regarding `CC(c1nc2ccc(F)cn2c(=O)c1-c1cccc(F)c1)n1nc(-c2cnc(OC3CC(F)(F)C3)s2)c2c(N)ncnc21` (stereo not drawn) [WX020], the pIC50 with TMD-8 cell is under 4.30; on PI3K delta it was 6.31; on PI3K gamma, 6.56.

Turning to `Cc1ncc(-c2nn(C(C)c3nc4ccc(F)cn4c(=O)c3-c3cccc(F)c3)c3ncnc(N)c23)s1` (stereo not drawn) [WX050], in data set [1], the half-life is 143 min, the peak level (Cmax) was 1260 nM and the “Oral DNAUC (dose-normalized area under curve)” value was 1513 nM · h/mpk. In addition, the pIC50 against PI3K delta was 7.86. For the same compound, the pIC50 against PI3K gamma was 6.24.

Regarding `CC(C)Oc1ccc(-c2nn(C(C)c3nc4c(Cl)cc(F)cn4c(=O)c3-c3cccc(F)c3)c3ncnc(N)c23)cc1F` (stereo not drawn) [WX014], the negative-log IC50 (pIC50) against PI3K delta is 6.64; at PI3K gamma, 6.21.

Take `Cc1cccc2nc(C(C)n3nc(-c4ccc(OC(C)C)c(F)c4)c4c(N)ncnc43)c(-c3cccc(F)c3)c(=O)n12` (stereo not drawn) [WX040]: the pIC50 against PI3K delta is 6.57; against PI3K gamma, 6.34.

On to `COc1ccc(-c2nn(C(C)c3nc4ccc(F)cn4c(=O)c3-c3cccc(F)c3)c3ncnc(N)c23)cn1` (single isomer, unassigned) [WX011], for which the pIC50 on PI3K delta is 6.22; against PI3K gamma, under 5.00.

For the compound `CC(C)Oc1ccc(-c2nn(C(C)c3nc4ccc(F)cn4c(=O)c3-c3cccc(F)c3)c3ncnc(N)c23)cc1F` (single isomer, unassigned) [WX002], the pIC50 on PI3K beta (read-out: PI3Kβ IC50, ATP 40 μM, PIP2:3PS 50 μM, 120 min) was under 5.00; at PI3K alpha (read-out: PI3Kα IC50, ATP 40 μM, PIP2:3PS 50 μM, 120 min), under 5.00; against PI3K delta it was under 6.00; against PI3K gamma, under 5.00.

`CC(c1nc2ccc(F)cn2c(=O)c1-c1cccc(F)c1)n1nc(-c2cnc(C(C)(C)C)s2)c2c(N)ncnc21` (stereo not drawn) [WX032]: in data set [1], the half-life was 1100 min, the concentration peaked (Cmax) at 1500 nM and the “Oral DNAUC (dose-normalized area under curve)” value is recorded as 2662 nM · h/mpk. This compound had a pIC50 against PI3K delta of 7.79. At PI3K gamma, the negative-log IC50 (pIC50) was 5.76.

`COc1ccc(-c2nn(C(C)c3nc4ccc(F)cn4c(=O)c3-c3cccc(F)c3)c3ncnc(N)c23)cc1F` (stereo not drawn) [WX009]: the negative logarithm of the IC50 (pIC50) against PI3K delta was under 6.00; on PI3K gamma, under 5.00.

Turning to `CNc1ncc(-c2nn(C(C)c3nc4ccc(F)cn4c(=O)c3-c3cccc(F)c3)c3ncnc(N)c23)s1` (stereo not drawn) [WX034], the figures for the negative-log IC50 (pIC50) against PI3K delta and on PI3K gamma were 8.40 and 6.39, respectively.

As to `CC(C)Oc1ccc(-c2nn(C(C)c3nc4c(F)cccn4c(=O)c3-c3cccc(F)c3)c3ncnc(N)c23)cc1F` (single isomer, unassigned) [WX013], the figures for the pIC50 at PI3K delta and against PI3K gamma were 6.53 and 6.24, respectively.

Regarding `Cc1nc(C)c(-c2nn(C(C)c3nc4ccc(F)cn4c(=O)c3-c3cccc(F)c3)c3ncnc(N)c23)s1` (stereo not drawn) [WX022], the pIC50 against PI3K delta was 6.22; against PI3K gamma it was 5.01.

With `CC(c1nc2ccc(F)cn2c(=O)c1-c1cccc(F)c1)n1nc(-c2cnc(N(C)C)s2)c2c(N)ncnc21` (stereo not drawn) [WX046], in data set [1], the half-life is 104 min, the peak level (Cmax) was 1560 nM and the “Oral DNAUC (dose-normalized area under curve)” value stood at 1648 nM · h/mpk. At PI3K delta, the pIC50 is 8.46. Further, the pIC50 against PI3K gamma is 6.31.

Turning to `CC(C)Oc1ncc(-c2nn(C(C)c3nc4ccc(F)cn4c(=O)c3-c3cccc(F)c3)c3ncnc(N)c23)cc1C#N` (single isomer, unassigned) [WX024], the results for the pIC50 against PI3K delta and at PI3K gamma were 6.50 and 5.14, respectively.

With `CSc1ccc(-c2nn(C(C)c3nc4ccc(F)cn4c(=O)c3-c3cccc(F)c3)c3ncnc(N)c23)cn1` (stereo not drawn) [WX036], the pIC50 on PI3K delta is 7.18; on PI3K gamma, 5.92.

Take `CC(C)Oc1ncc(-c2nn(C(C)c3nc4ccc(F)cn4c(=O)c3-c3cccc(F)c3)c3ncnc(N)c23)cc1C#N` (single isomer, unassigned) [WX025]: the pIC50 is 6.34 against PI3K delta and 5.95 at PI3K gamma.

The record behind these values is US20220112217A1, “PYRAZOLOPYRIMIDINE DERIVATIVE AND USE THEREOF AS PI3K INHIBITOR” (MEDSHINE DISCOVERY INC., priority 2018, published 2022).
